# In patent publication US8133887B2, “Oxaphenanthrene derivatives” (Merck Patent GmbH, priority 2005, dated 2012):
# Experiments:
# [1] = target: human CB2 receptor (Homo sapiens, UniProt P34972); experiment: CB2 (h) receptor ligand binding (competition)
# From the text: (§1) The specific ligand binding to the receptors is defined as the difference between complete binding and non-specific binding determined in the presence of an excess of unlabelled ligand (see, for example, MUNRO, S., THOMAS, K. L. and ABU-SHAAR, M. (1993), Molecular characterisation of a peripheral receptor for cannabinoids.
# (§2) The IC50 values (concentration necessary for half-maximum inhibition of the specific control binding) and Hill coefficients (nH) are obtained by non-linear regression analyses of the competition curves, with the curve matching being carried out in accordance with the Hill equation.
# (§3) The inhibition constants (Ki) are calculated in accordance with the Cheng Prusoff equation (Ki=IC50/1+(L/KD)).
# [2] = target: human CB1 receptor (Homo sapiens, UniProt P21554); experiment: CB1 (h) receptor ligand binding (competition)
# Chain of human CB1 receptor (P21554 whole entry): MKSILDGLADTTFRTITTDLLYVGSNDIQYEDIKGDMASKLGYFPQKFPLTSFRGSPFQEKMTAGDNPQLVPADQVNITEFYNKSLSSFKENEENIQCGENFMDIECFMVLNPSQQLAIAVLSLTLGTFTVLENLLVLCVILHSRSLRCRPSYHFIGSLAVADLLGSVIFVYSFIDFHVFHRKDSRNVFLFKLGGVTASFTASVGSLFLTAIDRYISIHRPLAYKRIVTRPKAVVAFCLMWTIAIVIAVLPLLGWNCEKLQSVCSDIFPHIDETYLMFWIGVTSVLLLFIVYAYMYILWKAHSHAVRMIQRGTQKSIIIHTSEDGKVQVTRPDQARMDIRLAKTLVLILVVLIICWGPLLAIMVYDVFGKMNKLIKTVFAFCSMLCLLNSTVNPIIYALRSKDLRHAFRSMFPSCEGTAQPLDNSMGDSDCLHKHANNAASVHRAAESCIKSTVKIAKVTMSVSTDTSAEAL
# From the text: as §1, §2, §3
# [3] = calculated by Cheng Prusoff equation
# [4] = half-maximum inhibition of specific control binding
# [5] = non-linear regression of competition curve
# Chain of human CB2 receptor (P34972 whole entry): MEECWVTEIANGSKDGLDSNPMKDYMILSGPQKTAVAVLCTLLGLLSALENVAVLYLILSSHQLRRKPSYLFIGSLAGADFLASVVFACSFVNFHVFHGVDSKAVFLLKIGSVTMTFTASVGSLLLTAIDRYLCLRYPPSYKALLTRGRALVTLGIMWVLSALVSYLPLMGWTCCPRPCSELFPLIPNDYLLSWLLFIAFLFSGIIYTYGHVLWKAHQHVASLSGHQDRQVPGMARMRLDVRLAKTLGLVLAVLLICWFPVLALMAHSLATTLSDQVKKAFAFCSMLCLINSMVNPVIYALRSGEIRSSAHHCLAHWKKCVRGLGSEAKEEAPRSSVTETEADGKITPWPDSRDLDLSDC
smiles,measurement,setting,value
CCCCCc1cc(O)c2c(c1)OC(F)(F)C1CCCCC21 (stereo not drawn) [Compound Ia],Ki,[1]; [3],920 nM
same,IC50,[1]; [4],1400 nM
same,nH (Hill coefficient),[1]; [5],0.9
same,Ki,[2]; [3],1900 nM
same,IC50,[2]; [4],2200 nM
same,nH (Hill coefficient),[2]; [5],1.5
